Several values for one entry are separate records, joined by “and”; a condition that tells them apart may be missing. Identical values can stand only once. Like-named read-outs stand apart in the source and are kept apart here. Residues, ends and D or L forms follow the SMILES beside them.

The values that follow come from paper PMC6784069 (Toxins, 2019).

For data set [1], the target named is T1, hKV11.1 (Homo sapiens, UniProt Q12809). Kind of data set: in vitro. Particulars: pH 7.4.
For a further data set, the target named is hCaV1.2 (Homo sapiens, UniProt Q13936). Kind of data set: cell-based. Particulars: SD.
Another data set addresses hNaV1.2 (Homo sapiens, UniProt Q99250). Kind of data set: cell-based. To be noted: SD.
Data set [2] has as its target T2, hNaV1.7 (Homo sapiens, UniProt Q15858). Kind of data set: cell-based. Format: cell-based. To be noted: for IC50: SD.
The target of a further data set is hNaV1.5 (Homo sapiens, UniProt Q14524). As to the kind of experiment: cell-based. Particulars: IC50 on hNaV1.5 current; SD.
Sequence of hNaV1.5 (Q14524 whole entry, looked up): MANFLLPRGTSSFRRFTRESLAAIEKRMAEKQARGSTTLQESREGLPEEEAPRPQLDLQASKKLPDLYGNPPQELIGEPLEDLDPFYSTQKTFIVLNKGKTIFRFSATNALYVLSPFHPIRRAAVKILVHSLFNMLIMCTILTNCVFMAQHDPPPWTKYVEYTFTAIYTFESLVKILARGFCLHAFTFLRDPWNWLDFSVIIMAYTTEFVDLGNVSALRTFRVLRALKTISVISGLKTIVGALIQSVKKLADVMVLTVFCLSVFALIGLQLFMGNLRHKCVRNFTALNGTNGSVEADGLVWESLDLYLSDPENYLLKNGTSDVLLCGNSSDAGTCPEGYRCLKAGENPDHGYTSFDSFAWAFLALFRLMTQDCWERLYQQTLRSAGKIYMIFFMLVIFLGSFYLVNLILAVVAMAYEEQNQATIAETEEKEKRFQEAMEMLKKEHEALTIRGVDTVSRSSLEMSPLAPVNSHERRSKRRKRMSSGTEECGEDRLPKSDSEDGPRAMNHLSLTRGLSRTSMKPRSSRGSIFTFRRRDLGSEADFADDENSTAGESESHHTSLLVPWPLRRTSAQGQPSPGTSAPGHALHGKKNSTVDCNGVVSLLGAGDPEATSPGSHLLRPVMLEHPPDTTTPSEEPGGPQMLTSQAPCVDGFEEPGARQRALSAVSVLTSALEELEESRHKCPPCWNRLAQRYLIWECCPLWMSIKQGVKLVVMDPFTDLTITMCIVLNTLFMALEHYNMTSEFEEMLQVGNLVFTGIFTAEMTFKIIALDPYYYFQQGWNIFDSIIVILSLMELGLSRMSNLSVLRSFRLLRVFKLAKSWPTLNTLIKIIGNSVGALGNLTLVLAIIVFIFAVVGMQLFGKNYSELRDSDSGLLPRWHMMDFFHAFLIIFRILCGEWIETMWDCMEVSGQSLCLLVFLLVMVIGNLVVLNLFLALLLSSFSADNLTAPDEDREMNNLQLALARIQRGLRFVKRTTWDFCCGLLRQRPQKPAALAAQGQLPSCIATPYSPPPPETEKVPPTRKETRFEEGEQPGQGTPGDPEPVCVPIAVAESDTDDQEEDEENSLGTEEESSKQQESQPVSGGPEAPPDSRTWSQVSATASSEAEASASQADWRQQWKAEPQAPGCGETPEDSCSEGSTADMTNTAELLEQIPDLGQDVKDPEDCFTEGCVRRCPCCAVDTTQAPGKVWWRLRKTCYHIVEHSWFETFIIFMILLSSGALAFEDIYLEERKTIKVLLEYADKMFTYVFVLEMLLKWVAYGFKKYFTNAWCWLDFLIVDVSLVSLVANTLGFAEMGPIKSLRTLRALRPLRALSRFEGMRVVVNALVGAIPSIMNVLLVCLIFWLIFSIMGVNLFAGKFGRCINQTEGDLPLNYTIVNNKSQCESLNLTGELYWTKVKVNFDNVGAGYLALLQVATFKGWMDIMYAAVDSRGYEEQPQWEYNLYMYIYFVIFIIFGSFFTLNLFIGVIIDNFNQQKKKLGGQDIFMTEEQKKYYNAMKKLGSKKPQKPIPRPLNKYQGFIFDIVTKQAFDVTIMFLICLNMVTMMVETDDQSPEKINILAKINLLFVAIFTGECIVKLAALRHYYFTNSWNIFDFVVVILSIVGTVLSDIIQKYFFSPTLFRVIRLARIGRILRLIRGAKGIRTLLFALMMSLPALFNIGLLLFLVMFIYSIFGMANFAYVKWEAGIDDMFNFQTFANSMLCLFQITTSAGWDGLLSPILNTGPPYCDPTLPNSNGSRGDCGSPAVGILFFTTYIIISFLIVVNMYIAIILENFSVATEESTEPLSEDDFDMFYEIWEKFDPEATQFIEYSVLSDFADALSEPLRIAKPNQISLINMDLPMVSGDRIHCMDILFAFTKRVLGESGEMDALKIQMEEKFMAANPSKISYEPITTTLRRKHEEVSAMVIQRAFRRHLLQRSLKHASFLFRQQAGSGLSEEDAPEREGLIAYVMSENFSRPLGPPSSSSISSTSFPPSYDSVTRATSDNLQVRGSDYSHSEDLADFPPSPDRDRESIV
The target of data set [3] is T1, hKV11.1.
Data set [4] relates to hNaV1.2, 1.5 and 1.7–1.8, hCaV1.2 and hKV11.1 currents. To be noted: for Hill number nH, all concentration–response curves: SD.
Another data set concerns the target hNaV1.8 (Homo sapiens, UniProt Q9Y5Y9). As to the kind of experiment: cell-based. Format: cell-based.
In data set [5] the test system is OD1-induced painful behavior of mice. Particulars: mouse, in vivo; cited from earlier work.
The target in data set [6] is T2, hNaV1.7. To be noted: cited from earlier work.
The subject of the next data set is hNaV1.1–1.8. It is filed as cell-based, human. Particulars: read-out: IC90–95 (compound concentration necessary to inhibit 90–95% of current).
The test system of a further data set is NaV1.2. Particulars: cited from earlier work.
Another data set relates to NaV1.8. Particulars: cited from earlier work.
For a further data set, the target named is hNaV1.1 (Homo sapiens, UniProt P35498). Kind of data set: cell-based. Particulars: SD.
The test system of the next data set is NaV1.1. Particulars: cited from earlier work.
For the next data set, the system named is Drosophila Para/TipE. To be noted: cited from earlier work.
The next data set concerns NaV1.3. Particulars: cited from earlier work.
Data set [7] relates to CFA-induced heat hyperalgesia. Particulars: mouse, in vivo; cited from earlier work.
The target of another data set is hNaV1.6 (Homo sapiens, UniProt Q9UQD0). Kind of data set: cell-based. Particulars: SD.
The target in the next data set is hNaV1.3 (Homo sapiens, UniProt Q9NY46). As to the kind of experiment: cell-based. Particulars: SD.
Data set [8] relates to OD1-induced painful behavior of mice. Particulars: mouse, in vivo.
Data set [9] deals with paw formalin injection pain. To be noted: mouse, in vivo; cited from earlier work.
The test system of a further data set is NaV1.7. Particulars: cited from earlier work.
A further data set deals with NaV1.5. Particulars: cited from earlier work.
The subject of a further data set is acute heat responses. To be noted: in vivo, ip; cited from earlier work.

Sequence of hNaV1.2 (Q99250 whole entry): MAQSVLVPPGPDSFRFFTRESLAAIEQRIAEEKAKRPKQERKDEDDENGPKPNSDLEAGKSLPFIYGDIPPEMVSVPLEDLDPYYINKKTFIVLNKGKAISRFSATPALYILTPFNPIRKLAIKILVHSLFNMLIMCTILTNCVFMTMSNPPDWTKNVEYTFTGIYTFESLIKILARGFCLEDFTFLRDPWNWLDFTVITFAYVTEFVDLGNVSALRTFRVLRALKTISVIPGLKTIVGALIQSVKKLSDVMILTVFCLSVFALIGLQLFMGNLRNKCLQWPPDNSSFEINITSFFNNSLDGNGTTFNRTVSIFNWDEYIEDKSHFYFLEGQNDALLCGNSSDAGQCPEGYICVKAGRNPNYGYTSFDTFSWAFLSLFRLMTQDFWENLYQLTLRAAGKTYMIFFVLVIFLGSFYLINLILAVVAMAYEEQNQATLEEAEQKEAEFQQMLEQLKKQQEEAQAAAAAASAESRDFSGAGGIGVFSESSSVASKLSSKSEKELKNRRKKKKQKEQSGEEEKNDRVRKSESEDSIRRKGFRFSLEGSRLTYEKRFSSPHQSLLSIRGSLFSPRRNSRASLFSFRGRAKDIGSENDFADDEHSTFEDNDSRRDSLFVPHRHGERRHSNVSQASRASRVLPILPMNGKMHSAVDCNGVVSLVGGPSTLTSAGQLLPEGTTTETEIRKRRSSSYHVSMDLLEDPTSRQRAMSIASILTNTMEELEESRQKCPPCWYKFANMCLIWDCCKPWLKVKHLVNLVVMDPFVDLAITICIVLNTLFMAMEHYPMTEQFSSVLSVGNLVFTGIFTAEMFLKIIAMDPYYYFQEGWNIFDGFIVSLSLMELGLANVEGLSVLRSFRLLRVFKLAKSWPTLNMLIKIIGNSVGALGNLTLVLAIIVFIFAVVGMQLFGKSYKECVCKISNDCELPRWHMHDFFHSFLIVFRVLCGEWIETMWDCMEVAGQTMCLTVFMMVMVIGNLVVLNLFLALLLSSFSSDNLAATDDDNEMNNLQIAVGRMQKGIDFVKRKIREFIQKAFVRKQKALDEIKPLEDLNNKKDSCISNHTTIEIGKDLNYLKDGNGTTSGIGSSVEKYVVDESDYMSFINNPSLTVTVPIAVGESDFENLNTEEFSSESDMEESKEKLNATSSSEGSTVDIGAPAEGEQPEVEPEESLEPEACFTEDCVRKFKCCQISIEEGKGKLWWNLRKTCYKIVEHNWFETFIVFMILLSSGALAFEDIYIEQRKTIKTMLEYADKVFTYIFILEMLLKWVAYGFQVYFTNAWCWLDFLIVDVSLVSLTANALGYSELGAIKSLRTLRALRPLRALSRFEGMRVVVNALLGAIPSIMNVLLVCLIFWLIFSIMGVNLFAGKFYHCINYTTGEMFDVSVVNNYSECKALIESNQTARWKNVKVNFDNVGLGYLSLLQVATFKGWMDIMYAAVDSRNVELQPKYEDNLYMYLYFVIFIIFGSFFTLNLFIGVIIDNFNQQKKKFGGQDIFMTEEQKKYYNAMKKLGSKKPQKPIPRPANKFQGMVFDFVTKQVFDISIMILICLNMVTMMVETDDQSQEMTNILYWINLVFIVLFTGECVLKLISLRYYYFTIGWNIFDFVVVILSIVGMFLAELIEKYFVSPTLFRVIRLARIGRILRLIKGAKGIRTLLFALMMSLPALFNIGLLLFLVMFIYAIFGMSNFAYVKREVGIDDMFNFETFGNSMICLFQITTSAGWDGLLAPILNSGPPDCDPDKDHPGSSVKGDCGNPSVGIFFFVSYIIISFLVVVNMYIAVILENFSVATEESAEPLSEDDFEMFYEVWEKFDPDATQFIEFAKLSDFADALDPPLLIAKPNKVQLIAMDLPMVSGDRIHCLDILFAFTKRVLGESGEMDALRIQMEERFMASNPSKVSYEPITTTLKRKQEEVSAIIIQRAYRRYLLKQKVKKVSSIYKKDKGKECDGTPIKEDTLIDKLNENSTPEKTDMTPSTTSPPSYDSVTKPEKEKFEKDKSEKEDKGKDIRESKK
T1 sequence (Q12809 whole entry): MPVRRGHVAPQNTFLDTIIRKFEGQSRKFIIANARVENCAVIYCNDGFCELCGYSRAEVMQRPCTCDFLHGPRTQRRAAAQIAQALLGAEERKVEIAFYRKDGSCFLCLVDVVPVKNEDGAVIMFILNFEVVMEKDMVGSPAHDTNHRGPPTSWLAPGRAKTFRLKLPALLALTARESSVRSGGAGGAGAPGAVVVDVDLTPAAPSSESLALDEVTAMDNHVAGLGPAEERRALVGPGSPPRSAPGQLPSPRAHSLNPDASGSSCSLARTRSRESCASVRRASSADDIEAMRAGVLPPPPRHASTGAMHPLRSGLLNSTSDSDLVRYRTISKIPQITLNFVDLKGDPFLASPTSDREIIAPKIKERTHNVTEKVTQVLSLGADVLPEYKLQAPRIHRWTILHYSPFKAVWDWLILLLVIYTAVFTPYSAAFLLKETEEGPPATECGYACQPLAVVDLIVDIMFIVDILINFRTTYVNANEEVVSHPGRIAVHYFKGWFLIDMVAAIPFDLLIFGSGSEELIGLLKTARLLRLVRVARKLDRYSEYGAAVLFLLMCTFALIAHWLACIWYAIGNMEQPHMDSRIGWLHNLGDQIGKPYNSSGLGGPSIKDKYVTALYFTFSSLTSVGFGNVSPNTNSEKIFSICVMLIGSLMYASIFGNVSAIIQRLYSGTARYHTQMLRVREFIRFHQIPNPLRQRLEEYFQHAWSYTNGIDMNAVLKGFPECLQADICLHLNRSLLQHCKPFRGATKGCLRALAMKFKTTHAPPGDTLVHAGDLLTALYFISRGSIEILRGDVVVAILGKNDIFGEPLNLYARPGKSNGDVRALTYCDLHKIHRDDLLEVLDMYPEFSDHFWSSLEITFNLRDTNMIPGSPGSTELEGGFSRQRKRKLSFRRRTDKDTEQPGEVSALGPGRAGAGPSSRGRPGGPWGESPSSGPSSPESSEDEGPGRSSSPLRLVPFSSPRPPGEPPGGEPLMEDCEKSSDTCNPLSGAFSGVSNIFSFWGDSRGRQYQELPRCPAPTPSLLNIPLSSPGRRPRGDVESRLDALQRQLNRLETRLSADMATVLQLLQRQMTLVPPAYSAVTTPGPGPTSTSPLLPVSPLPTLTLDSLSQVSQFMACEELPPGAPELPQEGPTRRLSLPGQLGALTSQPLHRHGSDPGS

At hKV11.1 [1], `CC[C@H](C)[C@H](NC(=O)[C@H](CC(=O)O)NC(=O)[C@@H](NC(=O)[C@@H]1CCCN1C(=O)[C@@H](N)CCCNC(=N)N)[C@@H](C)O)C(=O)N[C@@H](CCCCN)C(=O)N[C@H]1CSSC[C@@H]2NC(=O)[C@H](CCCNC(=N)N)NC(=O)CNC(=O)[C@H](CC(N)=O)NC(=O)[C@H]([C@@H](C)O)NC(=O)[C@H](CCCCN)NC(=O)CNC(=O)[C@H](Cc3ccccc3)NC(=O)[C@H](CCCNC(=N)N)NC(=O)[C@H](CO)NC(=O)[C@H](CCCCN)NC(=O)[C@@H]3CSSC[C@@H](C(=O)N[C@@H](Cc4ccccc4)C(=O)O)NC(=O)[C@H](CC(=O)O)NC(=O)[C@H](CSSC[C@H](NC(=O)[C@H](CCC(N)=O)NC(=O)[C@H](Cc4ccc(O)cc4)NC(=O)[C@H](CO)NC(=O)[C@H](CCC(=O)O)NC(=O)[C@H](CO)NC1=O)C(=O)N[C@@H](Cc1ccccc1)C(=O)N1CCC[C@H]1C(=O)N[C@@H](C(C)C)C(=O)N3)NC(=O)[C@H](Cc1ccccc1)NC(=O)CNC(=O)[C@H](CC(N)=O)NC(=O)[C@H](C(C)C)NC2=O` [BeKm-1] (HELM PEPTIDE1{R.P.T.D.I.K.C.S.E.S.Y.Q.C.F.P.V.C.K.S.R.F.G.K.T.N.G.R.C.V.N.G.F.C.D.C.F}$PEPTIDE1,PEPTIDE1,7:R3-28:R3|PEPTIDE1,PEPTIDE1,13:R3-33:R3|PEPTIDE1,PEPTIDE1,17:R3-35:R3$$$V2.0) returned an IC90 of 1000 nM.

With `CC(C)C[C@@H]1NC(=O)[C@@H](NC(=O)[C@H](C)N)CSSC[C@@H]2NC(=O)[C@@H]3CSSC[C@@H](C(=O)N[C@@H](CCCNC(=N)N)C(=O)N[C@@H](Cc4ccc(O)cc4)C(=O)N[C@@H](CCCCN)C(=O)N[C@@H](CC(C)C)C(=O)N[C@@H](Cc4ccccc4)C(=O)O)NC(=O)[C@H](Cc4c[nH]c5ccccc45)NC(=O)[C@@H]4CCCN4C(=O)[C@H](Cc4ccc(O)cc4)NC(=O)[C@H](CCCCN)NC(=O)[C@H](Cc4c[nH]c5ccccc45)NC(=O)[C@H](CCC(=O)O)NC(=O)[C@H](CSSC[C@H](NC(=O)[C@H](CO)NC(=O)[C@H](C)NC(=O)[C@H](Cc4c[nH]c5ccccc45)NC(=O)[C@H](CCC(N)=O)NC(=O)CNC1=O)C(=O)N[C@@H](CC(=O)O)C(=O)N1CCC[C@H]1C(=O)N[C@@H](CCCCN)C(=O)N[C@@H](C)C(=O)N[C@@H](CO)C(=O)N[C@@H](CCCCN)C(=O)N3)NC(=O)[C@H](C)NC(=O)[C@H](Cc1ccc(O)cc1)NC(=O)[C@H](CC(N)=O)NC(=O)[C@@H]1CCCN1C2=O` [D7A] (HELM PEPTIDE1{A.C.L.G.Q.W.A.S.C.D.P.K.A.S.K.C.C.P.N.Y.A.C.E.W.K.Y.P.W.C.R.Y.K.L.F}$PEPTIDE1,PEPTIDE1,2:R3-17:R3|PEPTIDE1,PEPTIDE1,9:R3-22:R3|PEPTIDE1,PEPTIDE1,16:R3-29:R3$$$V2.0), the IC50 against hCaV1.2 turned out to be 0.8 ± 0.253 µM; at hNaV1.2 it was 47.3 ± 5.2 nM; at hNaV1.7 [2] (IC50 on hNaV1.7 current) it was 73 ± 23.7 nM; on hNaV1.7 [2] (hNaV1.7 IC50), 47 nM; on hNaV1.5, 93.3 ± 32.9 nM; at hNaV1.8 (SD), 4 ± 0.5 µM. In addition, the “activity on the KV11.1 subtype” value at hKV11.1 [3] was “inactive”. The “gain of affinity versus PhlTx1” value in data set [4] is recorded as 2.5-7.4 fold. Further, the “Hill number nH, all concentration–response curves” value in [4] was 1.06 ± 0.13.

In the case of “Cd1a: spider toxin, NaV ligand (CLGWFKSCDPKNDKCCKNYSCSRRDRWCKYDL)”, the “concentration efficient to diminish or completely reverse the OD1-induced manifestations of pain” value (“concentration efficient” below) in data set [5] was 1 µM. The IC50 with hNaV1.7 [6] is 16 nM.

Regarding “CcoTx1: spider toxin, NaV ligand (CLGWFKSCDPKNDKCCKNYTCSRRDRWCKYDL)”, in data set [5], the “concentration efficient” value is on record as 1 µM. For the same compound, the IC50 in the data set with hNaV1.7 [6] is 2 to 130 nM.

As to `NC1=N[C@H](O)[C@H]2[C@H]3O[C@]4(O)O[C@@H]([C@@H](O)[C@@]2(N1)[C@@H]4O)[C@]3(O)CO` [Tetrodotoxin (citrate), Tetrodotoxin], in the data set with hNaV1.1–1.8, the IC90 turned out to be 1000 nM.

For the compound `CC(C)C[C@@H]1NC(=O)[C@@H](NC(=O)[C@H](C)N)CSSC[C@@H]2NC(=O)[C@@H]3CSSC[C@@H](C(=O)N[C@@H](CCCNC(=N)N)C(=O)N[C@@H](Cc4ccc(O)cc4)C(=O)N[C@@H](CCCCN)C(=O)N[C@@H](CC(C)C)C(=O)N[C@@H](Cc4ccccc4)C(=O)O)NC(=O)[C@H](Cc4c[nH]c5ccccc45)NC(=O)[C@@H]4CCCN4C(=O)[C@H](Cc4ccc(O)cc4)NC(=O)[C@H](CCCCN)NC(=O)[C@H](Cc4c[nH]c5ccccc45)NC(=O)[C@H](CCC(=O)O)NC(=O)[C@H](CSSC[C@H](NC(=O)[C@H](CO)NC(=O)[C@H](CC(=O)O)NC(=O)[C@H](Cc4c[nH]c5ccccc45)NC(=O)[C@H](CCC(N)=O)NC(=O)CNC1=O)C(=O)N[C@@H](CC(=O)O)C(=O)N1CCC[C@H]1C(=O)N[C@@H](CCCCN)C(=O)N[C@@H](C)C(=O)N[C@@H](CO)C(=O)N[C@@H](CCCCN)C(=O)N3)NC(=O)[C@H](C)NC(=O)[C@H](Cc1ccc(O)cc1)NC(=O)[C@H](CC(N)=O)NC(=O)[C@@H]1CCCN1C2=O` [PhlTx1] (HELM PEPTIDE1{A.C.L.G.Q.W.D.S.C.D.P.K.A.S.K.C.C.P.N.Y.A.C.E.W.K.Y.P.W.C.R.Y.K.L.F}$PEPTIDE1,PEPTIDE1,2:R3-17:R3|PEPTIDE1,PEPTIDE1,9:R3-22:R3|PEPTIDE1,PEPTIDE1,16:R3-29:R3$$$V2.0), in the data set on NaV1.2, the “inhibition of NaV1.2 current” value is “less than 10%”. Also, the “inhibition of NaV1.8 current” value with NaV1.8 is given as “less than 10%”. For the same compound, the IC50 is 5.9 ± 2.1 µM against hCaV1.2; 280 ± 118 nM against hNaV1.1; 491 ± 109 nM at hNaV1.6; 73.7 ± 46.3 nM at hNaV1.2; 279 ± 6.1 nM at hNaV1.2 (read-out: IC50 on hNaV1.2 current); 202 ± 110 nM against hNaV1.3. Besides, the IC50 is 309 ± 17 nM against hNaV1.7 [2] (IC50 on hNaV1.7 current); 254 nM against hNaV1.7 [2] (hNaV1.7 IC50); 260 nM with NaV1.7 (read-out: mean IC50 for interaction with the NaV1.7 subtype); 711 nM and 396 nM against hNaV1.5; above 10 µM at hNaV1.8. Besides, the “inhibition of NaV1.1 current” value in the data set on NaV1.1 is recorded as “less than 10%”. For the same compound, the “inhibition of Drosophila Para/TipE current” value with Drosophila Para/TipE was “less than 10%”. Besides, the “inhibition of NaV1.3 current” value in the data set on NaV1.3 is listed as “less than 10%”. Besides, in data set [7], the “analgesia in CFA-induced heat hyperalgesia” value is given as “ineffective”. In data set [8], the “cardiac or neuromuscular side-effects” value is recorded as “no sign of cardiac or neuromuscular side-effects”. Besides, the “pharmacological activity on the hNaV1.7 current” value on hNaV1.7 [2] is “strongly inhibit”. In addition, the “selectivity towards the TTX-R (except hNaV1.8) and other TTX-S (except hNaV1.4) hNaV subtypes” value at hNaV1.7 [2] was “less than 10 fold”. In [9], the “effects in acute and inflammatory neuropathic (paw formalin injection) pain” value was “Anti-allodynic and analgesic effects”. In addition, the “inhibition of NaV1.7 current” value in the data set on NaV1.7 is “greater than 90%”. Also, on hKV11.1 [3], the “effect on the hKV11.1 current” value was “no effect”. In addition, the “Hill number nH, all concentration–response curves” value in [4] amounted to 1.05 ± 0.15. In addition, in the data set on NaV1.5, the “inhibition of NaV1.5 current” value is listed as “less than 10%”. Further, the “effect on mouse acute heat responses” value with acute heat responses is listed as “ineffective”. Also, the “effect on the hNaV1.8 current” value at hNaV1.8 was “unaffected”.

Take “CcoTx2: spider toxin, NaV ligand (CLGWFKSCDPKNDKCCKNYTCSRRDRWCKYYL)”: the “concentration efficient” value in data set [5] was 1 µM. Further, the IC50 with hNaV1.7 [6] is 95 nM.
